Measurements published in patent publication US20200079765A1, “SUBSTITUTED HETEROARYL PYRROLONES AND SALTS THEREOF AND USE THEREOF AS HERBICIDAL ACTIVE SUBSTANCES” (Bayer CropScience Aktiengesellschaft, priority 2016, published 2020).

Tests used:
Stellaria media [1] = test: Herbicidal pre-emergence action (Experimental Part 2, D); format: in vivo; conditions: pre-emergence (Part 2), scored visually after about 3 weeks
From the text: (§1) Seeds of mono- and dicotyledonous weed plants were placed in plastic pots in sandy loam soil (doubly sown with in each case one species of mono- or dicotyledonous weed plants per pot) and covered with soil. The compounds of the invention, formulated in the form of wettable powders (WP) or as emulsion concentrates (EC), were then applied onto the surface of the covering soil as aqueous suspension or emulsion with addition of 0.5% additive at a water application rate of 600 liters per hectare (converted). After the treatment, the pots are placed in a greenhouse and kept under good growth conditions for the trial plants. After about 3 weeks, the effect of the preparations was scored visually in comparison with untreated controls as percentages. For example, 100% activity=the plants have died, 0% activity=like control plants. Tables D1 to D8 below show the effects of selected compounds of the general formula (I) according to Tables I.1 to I.116 on various harmful plants and an application rate corresponding to 1280 g/ha or 320 g/ha, which were obtained by the experimental procedure mentioned above.

Matricaria inodora [2] = test: as above; format: in vivo; conditions: pre-emergence (Part 2), scored visually after about 3 weeks
From the text: as §1

Setaria viridis [3] = test: as above; format: in vivo; conditions: pre-emergence (Part 2), scored visually after about 3 weeks
From the text: as §1

Abutilon theophrasti [4] = test: as above; format: in vivo; conditions: pre-emergence (Part 2), application rate 320 g/ha, scored visually after about 3 weeks
From the text: as §1

Amaranthus retroflexus [5] = test: as above; format: in vivo; conditions: pre-emergence (Part 2), scored visually after about 3 weeks
From the text: as §1

Echinochloa crus-galli [6] = test: as above; format: in vivo; conditions: pre-emergence (Part 2), scored visually after about 3 weeks
From the text: as §1

Lolium rigidum = test: as above; format: in vivo; conditions: pre-emergence (Part 2), scored visually after about 3 weeks
From the text: as §1

Poa annua [7] = test: as above; format: in vivo; conditions: pre-emergence (Part 2), scored visually after about 3 weeks
From the text: as §1

photosystem II (PS II) = molecular target: T1, photosystem II (PS II) (Spinacia oleracea, UniProt P69560); test: Measurement of the PS II activity in thylakoid membranes (DCPIP reduction, Experimental Part 3, Table E1); format: biochemical; conditions: spinach thylakoid membranes
T1 construct: the chloroplasts were osmotically ruptured and the thylakoid membranes were then obtained by centrifugation; from tissue; host or cells: thylakoid membranes from fresh spinach leaves
Experimental: Cooled fresh spinach leaves were comminuted and homogenized in 50 mM phosphate buffer, pH 6.8. 10 mM KCl, 0.34 M sucrose (sucrose buffer) (blender, 1 g of plant material/ml). The homogenate was subsequently filtered through 4 layers of Miracloth and the chloroplasts were isolated by centrifugation, i.e. 10 min of centrifugation at 4400×g (4° C.). The sediment was suspended in 25 ml of sucrose buffer and re-centrifuged for 10 min at 4400×g (4° C.). The sediment was then suspended in 40 ml of 50 mM phosphate buffer, pH 6.8, 10 mM KCl, without sucrose. In this step, the chloroplasts were osmotically ruptured and the thylakoid membranes were then obtained by centrifugation (10 min, 4400×g, 4° C.). The membrane sediment was finally suspended in about 20 ml of 50 mM phosphate buffer, pH 6.8, 10 mM KCl. Following protein determination and activity determination, the membrane suspension was divided into aliquots and frozen in liquid nitrogen. The aliquots were stored at −80° C. Under these conditions, the photosystem II preparation was storage stable for at least three months. The activity determination of photosystem II (PS II) was then carried out using the following test principle: The electron transfer from PS II to an artificial electron acceptor, 2,6-dichlorophenolindophenol (DCPIP), was measured with exposure to light. The concentration of the blue oxidized form of DCPIP was determined spectrophotometrically at wavelength λ=595 nm. […] The activity determination was carried out in microtiter plates (96 cavities) in a reaction volume of 200 μl. Here, 155 μl of dilute membrane suspension were initially charged in 50 mM of phosphate buffer, pH 6.8, 10 mM KCl. Depending on the activity of the PS II preparation, the dilution was adjusted such that the measurement of the decrease in absorption (λ=595 nm) was linear for at least 10 min. In each case 5 μl solution of the test compounds of a concentration of 100 μM in DMSO were added to the enzyme suspension; controls contained 5 μl DMSO; the final concentration of DMSO in the reaction batch was thus 2.5% (v/v); this concentration had no adverse effect on the enzymatic activity. On each microtiter plate, a known PS II inhibitor, for example metribuzin, was used as standard, which allowed the quality of the PS II test to be assessed. The reaction was started by addition of 40 μl DCPIP solution (600 μM in distilled water); the final concentration of DCPIP was 120 μM. Measurement of absorption was carried out over a period of 10 min at 22° C. and with exposure to light. Using metribuzin as comparative substance, the results for the efficacy of the compounds of the general formula (I) at 100 μM are stated in the table below using the following classification: ++++ (inhibition≥90%), +++ (90%>inhibition≥70%), ++ (70%>inhibition≥50%), + (50%>inhibition≥30%).
Effects of selected compounds of the general formula (I) according to the following table E1: […]

Stellaria media [8] = test: Herbicidal post-emergence action (Experimental Part 2, C); format: in vivo; conditions: post-emergence (Part 2), rated visually after about 3 weeks
Experimental: (§2) Seeds of mono- and dicotyledonous weed plants were placed in plastic pots in sandy loam soil (doubly sown with in each case one species of mono- or dicotyledonous weed plants per pot), covered with soil and cultivated in a greenhouse under controlled growth conditions. 2 to 3 weeks after sowing, the test plants were treated at the one-leaf stage. The compounds of the invention, formulated in the form of wettable powders (WP) or as emulsion concentrates (EC), were applied onto the green parts of the plants as aqueous suspension or emulsion with addition of 0.5% additive at a water application rate of 600 liters per hectare (converted). After the test plants had been kept in the greenhouse under optimum growth conditions for about 3 weeks, the activity of the preparations was rated visually in comparison to untreated controls. For example, 100% activity=the plants have died, 0% activity=like control plants. Tables C1 to C8 below show the effects of selected compounds of the general formula (I) according to Tables I.1 to I.116 on various harmful plants and an application rate corresponding to 1280 g/ha or 320 g/ha, which were obtained by the experimental procedure mentioned above.

Matricaria inodora [9] = test: as above; format: in vivo; conditions: post-emergence (Part 2), rated visually after about 3 weeks
Experimental: as §2

Setaria viridis [10] = test: as above; format: in vivo; conditions: post-emergence (Part 2), rated visually after about 3 weeks
Experimental: as §2

Abutilon theophrasti [11] = test: as above; format: in vivo; conditions: post-emergence (Part 2), rated visually after about 3 weeks
Experimental: as §2

Amaranthus retroflexus [12] = test: as above; format: in vivo; conditions: post-emergence (Part 2), rated visually after about 3 weeks
Experimental: as §2

Echinochloa crus-galli [13] = test: as above; format: in vivo; conditions: post-emergence (Part 2), application rate 1280 g/ha, rated visually after about 3 weeks
Experimental: as §2

Poa annua [14] = test: as above; format: in vivo; conditions: post-emergence (Part 2), rated visually after about 3 weeks
Experimental: as §2

| Compound | Stellaria media, herbicidal activity (Stellaria media [1]; application rate 1280 g/ha) | Matricaria inodora, herbicidal activity (Matricaria inodora [2]; application rate 1280 g/ha) | Setaria viridis, herbicidal activity (Setaria viridis [3]; application rate 320 g/ha) | Abutilon theophrasti, herbicidal activity (Abutilon theophrasti [4]) | Amaranthus retroflexus, herbicidal activity (Amaranthus retroflexus [5]; application rate 1280 g/ha) | Poa Annua, herbicidal activity (Poa annua [7]; application rate 1280 g/ha) | Effect (inhibition of PS II activity) (photosystem II (PS II)) | Stellaria media, herbicidal activity (Stellaria media [8]; application rate 320 g/ha) | Matricaria inodora, herbicidal activity (Matricaria inodora [9]; application rate 320 g/ha) | Setaria viridis, herbicidal activity (Setaria viridis [10]; application rate 1280 g/ha) | Abutilon theophrasti, herbicidal activity (Abutilon theophrasti [11]; application rate 1280 g/ha) | Amaranthus retroflexus, herbicidal activity (Amaranthus retroflexus [12]; application rate 1280 g/ha) | Echinochloa crus-galli, herbicidal activity (Echinochloa crus-galli [13]) | Poa Annua, herbicidal activity (Poa annua [14]; application rate 1280 g/ha) | Lolium rigidum, herbicidal activity (Lolium rigidum; application rate 1280 g/ha) | Poa Annua, herbicidal activity (Poa annua [7]; application rate 320 g/ha) | Stellaria media, herbicidal activity (Stellaria media [8]; application rate 1280 g/ha) | Abutilon theophrasti, herbicidal activity (Abutilon theophrasti [11]; application rate 320 g/ha) | Stellaria media, herbicidal activity (Stellaria media [1]; application rate 320 g/ha) | Setaria viridis, herbicidal activity (Setaria viridis [3]; application rate 1280 g/ha) | also measured |
| --- | --- | --- | --- | --- | --- | --- | --- | --- | --- | --- | --- | --- | --- | --- | --- | --- | --- | --- | --- | --- | --- |
| CC1=CC(=O)N(c2noc(C(C)(C)C)c2C)C1O (centres unmarked) [I.1-177] | 100% | 100% | 100% | 100% | 90% | 100% | ++++ (inhibition≥90%) | 100% | 100% | 100% | 100% | 100% | 100% | 100% |  |  |  |  |  |  | Echinochloa crus-galli, herbicidal activity (Echinochloa crus-galli [6]; application rate 1280 g/ha): 100%; Lolium rigidum, herbicidal activity (Lolium rigidum; application rate 320 g/ha): 90% |
| CCC(=O)OC1C(C)=CC(=O)N1c1cc(C(F)(F)F)c(Cl)cn1 (centres unmarked) [I.5-451, 5-Ethylcarbonyloxy-4-methyl-1-(5-chloro-4-trifluoromethylpyridin-2-yl)-1,5-dihydro-2H-pyrrol-2-one] | 100% | 90% | 100% |  |  |  |  |  |  | 90% |  |  |  | 100% | 90% | 100% | 100% | 100% |  |  | Matricaria inodora, herbicidal activity (Matricaria inodora [9]; application rate 1280 g/ha): 90% |
| CC1=CC(=O)N(c2cc(C(F)(F)F)c(Cl)cn2)C1O (centres unmarked) [I.1-451, 5-Hydroxy-4-methyl-1-(5-chloro-4-trifluoromethylpyridin-2-yl)-1,5-dihydro-2H-pyrrol-2-one] |  | 100% |  |  | 90% | 90% | ++++ (inhibition≥90%) | 100% | 90% |  |  | 100% | 100% |  |  |  |  | 100% | 100% | 100% | Poa Annua, herbicidal activity (Poa annua [14]; application rate 320 g/ha): 100% |
| CC1=CC(=O)N(c2onc(C(C)(C)C)c2C)C1O (centres unmarked) [I.1-300] |  |  |  | 100% | 90% |  | +++ (90%>inhibition≥70%) | 100% | 100% |  |  |  | 100% |  | 90% | 90% |  | 100% | 100% | 100% | Matricaria inodora, herbicidal activity (Matricaria inodora [2]; application rate 320 g/ha): 100%; Echinochloa crus-galli, herbicidal activity (Echinochloa crus-galli [6]; application rate 320 g/ha): 100%; Setaria viridis, herbicidal activity (Setaria viridis [10]; application rate 320 g/ha): 100%; Amaranthus retroflexus, herbicidal activity (Amaranthus retroflexus [12]; application rate 320 g/ha): 100%; Poa Annua, herbicidal activity (Poa annua [14]; application rate 320 g/ha): 100% |
| CC1=CC(O)N(c2onc(C(C)(C)C)c2C)C1=O (centres unmarked) [I.2-300] |  | 90% | 90% | 90% |  | 90% | ++++ (inhibition≥90%) |  |  | 90% | 100% |  |  |  |  |  | 100% |  | 90% |  | Amaranthus retroflexus, herbicidal activity (Amaranthus retroflexus [5]; application rate 320 g/ha): 100%; Amaranthus retroflexus, herbicidal activity (Amaranthus retroflexus [12]; application rate 320 g/ha): 100% |
